Article PMC7385619, “A triple action CDK4/6-PI3K-BET inhibitor with augmented cancer cell cytotoxicity” (Cell Discovery, 2020)

How the values were obtained:
Experiment in all cases: KINOMEscan assay (Eurofins DiscoverX)
Type in all cases: binding
kinome (kinase panel) [1] = biological target: T1, kinome (kinase panel) (Homo sapiens, UniProt P57059); conditions: SIK (SIK1); 1000 nM; read-out: Percent Control
T1 construct: purchased Eurofins DiscoverX

kinome (kinase panel) [2] = biological target: T2, kinome (kinase panel) (Homo sapiens, UniProt Q8N752); conditions: CSNK1A1L; 1000 nM; read-out: Percent Control
T2 construct: purchased Eurofins DiscoverX

kinome (kinase panel) [3] = biological target: T3, kinome (kinase panel) (Homo sapiens, UniProt O75116); conditions: ROCK2; 1000 nM; read-out: Percent Control
T3 construct: purchased Eurofins DiscoverX

kinome (kinase panel) [4] = biological target: T4, kinome (kinase panel) (Homo sapiens, UniProt P48736); conditions: PIK3CG; 1000 nM; read-out: Percent Control
T4 construct: purchased Eurofins DiscoverX

kinome (kinase panel) [5] = biological target: T5, kinome (kinase panel) (Homo sapiens, UniProt Q15746); conditions: MYLK; 1000 nM; read-out: Percent Control
T5 construct: purchased Eurofins DiscoverX

kinome (kinase panel) [6] = biological target: T6, kinome (kinase panel) (Homo sapiens, UniProt O14730); conditions: RIOK3; 1000 nM; read-out: Percent Control
T6 construct: purchased Eurofins DiscoverX

kinome (kinase panel) [7] = biological target: T7, kinome (kinase panel) (Homo sapiens, UniProt Q9BRS2); conditions: RIOK1; 1000 nM; read-out: Percent Control
T7 construct: purchased Eurofins DiscoverX

kinome (kinase panel) [8] = biological target: T8, kinome (kinase panel) (Homo sapiens, UniProt Q12851); conditions: MAP4K2; 1000 nM; read-out: Percent Control
T8 construct: purchased Eurofins DiscoverX

kinome (kinase panel) [9] = biological target: T9, kinome (kinase panel) (Homo sapiens, UniProt Q9H422); conditions: HIPK3; 1000 nM; read-out: Percent Control
T9 construct: purchased Eurofins DiscoverX

kinome (kinase panel) [10] = biological target: T10, kinome (kinase panel) (Homo sapiens, UniProt P41240); conditions: CSK; 1000 nM; read-out: Percent Control
T10 construct: purchased Eurofins DiscoverX

kinome (kinase panel) [11] = biological target: T11, kinome (kinase panel) (Homo sapiens, UniProt Q12866); conditions: MERTK; 1000 nM; read-out: Percent Control
T11 construct: purchased Eurofins DiscoverX

kinome (kinase panel) [12] = biological target: T12, kinome (kinase panel) (Homo sapiens, UniProt O15111); conditions: IKK-alpha (Entrez CHUK); 1000 nM; read-out: Percent Control
T12 construct: purchased Eurofins DiscoverX

kinome (kinase panel) [13] = biological target: T13, kinome (kinase panel) (Homo sapiens, UniProt P37023); conditions: ACVRL1; 1000 nM; read-out: Percent Control
T13 construct: purchased Eurofins DiscoverX

kinome (kinase panel) [14] = biological target: T14, kinome (kinase panel) (Homo sapiens, UniProt P00533, L861Q); conditions: […]; 1000 nM; read-out: Percent Control
T14 construct: purchased Eurofins DiscoverX

kinome (kinase panel) [15] = biological target: T15, kinome (kinase panel) (Homo sapiens, UniProt P42684); conditions: ABL2; 1000 nM; read-out: Percent Control
T15 construct: purchased Eurofins DiscoverX

kinome (kinase panel) [16] = biological target: T16, kinome (kinase panel) (Homo sapiens, UniProt P10721, A829P); conditions: […]; 1000 nM; read-out: Percent Control
T16 construct: purchased Eurofins DiscoverX

kinome (kinase panel) [17] = biological target: T17, kinome (kinase panel) (Homo sapiens, UniProt P28482); conditions: ERK2 (Entrez MAPK1); 1000 nM; read-out: Percent Control
T17 construct: purchased Eurofins DiscoverX

kinome (kinase panel) [18] = biological target: T18, kinome (kinase panel) (Homo sapiens, UniProt P49674); conditions: CSNK1E; 1000 nM; read-out: Percent Control
T18 construct: purchased Eurofins DiscoverX

kinome (kinase panel) [19] = biological target: T19, kinome (kinase panel) (Homo sapiens, UniProt Q9H2G2); conditions: SLK; 1000 nM; read-out: Percent Control
T19 construct: purchased Eurofins DiscoverX

kinome (kinase panel) [20] = biological target: T20, kinome (kinase panel) (Homo sapiens, UniProt P45985); conditions: MEK4 (Entrez MAP2K4); 1000 nM; read-out: Percent Control
T20 construct: purchased Eurofins DiscoverX

kinome (kinase panel) [21] = biological target: T21, kinome (kinase panel) (Homo sapiens, UniProt P36888, R834Q); conditions: […]; 1000 nM; read-out: Percent Control
T21 construct: purchased Eurofins DiscoverX

kinome (kinase panel) [22] = biological target: T22, kinome (kinase panel) (Homo sapiens, UniProt Q99558); conditions: NIK (Entrez MAP3K14); 1000 nM; read-out: Percent Control
T22 construct: purchased Eurofins DiscoverX

kinome (kinase panel) [23] = biological target: T23, kinome (kinase panel) (Homo sapiens, UniProt P42336, C420R); conditions: read-out: Percent Control
T23 construct: purchased Eurofins DiscoverX

kinome (kinase panel) [24] = biological target: T24, kinome (kinase panel) (Homo sapiens, UniProt P09619); conditions: PDGFRB; 1000 nM; read-out: Percent Control
T24 construct: purchased Eurofins DiscoverX

kinome (kinase panel) [25] = biological target: T25, kinome (kinase panel) (Homo sapiens, UniProt P22607, G697C); conditions: read-out: Percent Control
T25 construct: purchased Eurofins DiscoverX

kinome (kinase panel) [26] = biological target: T26, kinome (kinase panel) (Homo sapiens, UniProt P42336, M1043I); conditions: read-out: Percent Control
T26 construct: purchased Eurofins DiscoverX

kinome (kinase panel) [27] = biological target: T27, kinome (kinase panel) (Homo sapiens, UniProt Q92772); conditions: CDKL2; 1000 nM; read-out: Percent Control
T27 construct: purchased Eurofins DiscoverX

kinome (kinase panel) [28] = biological target: T28, kinome (kinase panel) (Homo sapiens, UniProt Q9NY57); conditions: YANK2 (STK32B); 1000 nM; read-out: Percent Control
T28 construct: purchased Eurofins DiscoverX

kinome (kinase panel) [29] = biological target: T29, kinome (kinase panel) (Homo sapiens, UniProt Q9P1W9); conditions: PIM2; 1000 nM; read-out: Percent Control
T29 construct: purchased Eurofins DiscoverX

kinome (kinase panel) [30] = biological target: T30, kinome (kinase panel) (Homo sapiens, UniProt P37173); conditions: TGFBR2; 1000 nM; read-out: Percent Control
T30 construct: purchased Eurofins DiscoverX

kinome (kinase panel) [31] = biological target: T31, kinome (kinase panel) (Homo sapiens, UniProt P49840); conditions: GSK3A; 1000 nM; read-out: Percent Control
T31 construct: purchased Eurofins DiscoverX

kinome (kinase panel) [32] = biological target: T32, kinome (kinase panel) (Homo sapiens, UniProt Q9NRM7); conditions: LATS2; 1000 nM; read-out: Percent Control
T32 construct: purchased Eurofins DiscoverX

kinome (kinase panel) [33] = biological target: T33, kinome (kinase panel) (Homo sapiens, UniProt O94921); conditions: PFTK1 (Entrez CDK14); 1000 nM; read-out: Percent Control
T33 construct: purchased Eurofins DiscoverX

T6 sequence (O14730 whole entry): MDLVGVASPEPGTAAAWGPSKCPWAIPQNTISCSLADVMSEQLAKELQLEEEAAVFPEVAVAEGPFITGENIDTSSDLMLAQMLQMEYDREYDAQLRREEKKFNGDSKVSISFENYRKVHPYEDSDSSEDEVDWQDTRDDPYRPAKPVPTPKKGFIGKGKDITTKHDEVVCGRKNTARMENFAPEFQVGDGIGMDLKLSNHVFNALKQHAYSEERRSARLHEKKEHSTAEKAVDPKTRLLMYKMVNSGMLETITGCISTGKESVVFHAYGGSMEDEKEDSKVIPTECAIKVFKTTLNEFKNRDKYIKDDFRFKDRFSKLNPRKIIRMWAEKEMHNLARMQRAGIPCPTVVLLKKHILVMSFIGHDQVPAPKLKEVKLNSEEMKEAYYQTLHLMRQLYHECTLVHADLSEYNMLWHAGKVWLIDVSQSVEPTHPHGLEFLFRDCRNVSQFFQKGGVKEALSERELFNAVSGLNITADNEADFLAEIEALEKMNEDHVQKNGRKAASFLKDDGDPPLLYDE
T18 sequence (P49674 whole entry): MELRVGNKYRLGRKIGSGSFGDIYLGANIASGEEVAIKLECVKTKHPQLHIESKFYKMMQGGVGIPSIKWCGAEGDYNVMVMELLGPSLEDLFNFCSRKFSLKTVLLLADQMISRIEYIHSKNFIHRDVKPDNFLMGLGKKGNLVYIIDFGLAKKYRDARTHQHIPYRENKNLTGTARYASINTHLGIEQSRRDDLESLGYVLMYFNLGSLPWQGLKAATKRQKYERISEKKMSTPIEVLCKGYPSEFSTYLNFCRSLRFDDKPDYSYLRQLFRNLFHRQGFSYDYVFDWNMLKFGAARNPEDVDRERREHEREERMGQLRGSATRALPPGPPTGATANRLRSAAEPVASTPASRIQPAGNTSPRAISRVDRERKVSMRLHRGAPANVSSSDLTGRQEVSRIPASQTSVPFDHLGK
T20 sequence (P45985 whole entry): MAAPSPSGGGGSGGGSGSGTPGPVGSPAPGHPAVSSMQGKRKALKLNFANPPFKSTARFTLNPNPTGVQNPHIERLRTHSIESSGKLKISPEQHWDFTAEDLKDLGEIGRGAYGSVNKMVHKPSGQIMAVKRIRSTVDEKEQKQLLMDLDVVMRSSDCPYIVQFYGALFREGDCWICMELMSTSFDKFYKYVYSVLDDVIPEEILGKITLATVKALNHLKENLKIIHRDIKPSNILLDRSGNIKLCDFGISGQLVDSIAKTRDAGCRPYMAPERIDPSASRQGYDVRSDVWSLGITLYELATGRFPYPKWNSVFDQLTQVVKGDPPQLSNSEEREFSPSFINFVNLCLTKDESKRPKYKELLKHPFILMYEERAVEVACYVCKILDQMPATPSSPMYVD
T1 sequence (P57059 whole entry): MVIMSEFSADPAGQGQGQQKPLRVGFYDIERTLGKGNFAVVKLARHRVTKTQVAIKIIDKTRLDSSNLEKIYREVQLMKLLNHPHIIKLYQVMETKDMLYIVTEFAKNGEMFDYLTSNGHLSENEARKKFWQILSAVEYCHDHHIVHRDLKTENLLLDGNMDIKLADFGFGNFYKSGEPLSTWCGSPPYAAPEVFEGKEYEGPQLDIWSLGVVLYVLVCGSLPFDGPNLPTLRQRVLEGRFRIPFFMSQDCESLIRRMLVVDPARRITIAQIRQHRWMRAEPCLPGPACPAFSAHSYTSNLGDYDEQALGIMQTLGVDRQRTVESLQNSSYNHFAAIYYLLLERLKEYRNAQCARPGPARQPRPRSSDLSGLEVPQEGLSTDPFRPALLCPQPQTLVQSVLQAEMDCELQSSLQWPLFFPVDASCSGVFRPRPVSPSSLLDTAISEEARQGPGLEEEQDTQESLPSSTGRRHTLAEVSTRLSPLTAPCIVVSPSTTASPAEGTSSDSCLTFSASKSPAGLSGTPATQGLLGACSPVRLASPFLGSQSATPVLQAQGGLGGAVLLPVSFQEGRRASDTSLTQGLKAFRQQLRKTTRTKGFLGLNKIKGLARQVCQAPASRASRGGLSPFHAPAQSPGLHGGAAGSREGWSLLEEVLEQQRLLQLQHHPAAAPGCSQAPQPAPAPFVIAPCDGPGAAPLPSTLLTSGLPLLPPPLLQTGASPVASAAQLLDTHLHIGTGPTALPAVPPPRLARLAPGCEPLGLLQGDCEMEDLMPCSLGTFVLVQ
T10 sequence (P41240 whole entry): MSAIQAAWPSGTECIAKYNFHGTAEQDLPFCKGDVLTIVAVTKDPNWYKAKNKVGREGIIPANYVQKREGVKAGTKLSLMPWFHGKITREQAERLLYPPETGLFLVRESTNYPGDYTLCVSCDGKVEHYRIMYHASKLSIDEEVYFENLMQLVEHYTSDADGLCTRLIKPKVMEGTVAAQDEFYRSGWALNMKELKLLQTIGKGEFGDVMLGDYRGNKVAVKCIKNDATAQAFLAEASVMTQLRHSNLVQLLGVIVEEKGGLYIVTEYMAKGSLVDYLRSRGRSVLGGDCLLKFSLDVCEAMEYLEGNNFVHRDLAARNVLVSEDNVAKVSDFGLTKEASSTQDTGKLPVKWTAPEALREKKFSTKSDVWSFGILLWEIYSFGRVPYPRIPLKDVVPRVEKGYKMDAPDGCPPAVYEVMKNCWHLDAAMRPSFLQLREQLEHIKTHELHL
T31 sequence (P49840 whole entry): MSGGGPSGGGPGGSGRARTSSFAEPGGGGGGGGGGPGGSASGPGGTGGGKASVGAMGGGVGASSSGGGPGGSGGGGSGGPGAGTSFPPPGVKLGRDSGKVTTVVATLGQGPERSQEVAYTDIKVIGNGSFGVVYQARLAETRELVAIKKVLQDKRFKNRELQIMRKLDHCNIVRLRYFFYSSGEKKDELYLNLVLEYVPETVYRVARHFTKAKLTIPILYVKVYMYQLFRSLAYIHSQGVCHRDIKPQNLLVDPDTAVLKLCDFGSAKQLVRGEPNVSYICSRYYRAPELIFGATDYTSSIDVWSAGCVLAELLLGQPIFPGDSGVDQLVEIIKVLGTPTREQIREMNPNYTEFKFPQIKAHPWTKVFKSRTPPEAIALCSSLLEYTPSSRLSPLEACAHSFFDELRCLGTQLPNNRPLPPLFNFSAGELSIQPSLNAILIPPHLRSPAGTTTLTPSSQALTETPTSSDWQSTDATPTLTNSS
T3 sequence (O75116 whole entry): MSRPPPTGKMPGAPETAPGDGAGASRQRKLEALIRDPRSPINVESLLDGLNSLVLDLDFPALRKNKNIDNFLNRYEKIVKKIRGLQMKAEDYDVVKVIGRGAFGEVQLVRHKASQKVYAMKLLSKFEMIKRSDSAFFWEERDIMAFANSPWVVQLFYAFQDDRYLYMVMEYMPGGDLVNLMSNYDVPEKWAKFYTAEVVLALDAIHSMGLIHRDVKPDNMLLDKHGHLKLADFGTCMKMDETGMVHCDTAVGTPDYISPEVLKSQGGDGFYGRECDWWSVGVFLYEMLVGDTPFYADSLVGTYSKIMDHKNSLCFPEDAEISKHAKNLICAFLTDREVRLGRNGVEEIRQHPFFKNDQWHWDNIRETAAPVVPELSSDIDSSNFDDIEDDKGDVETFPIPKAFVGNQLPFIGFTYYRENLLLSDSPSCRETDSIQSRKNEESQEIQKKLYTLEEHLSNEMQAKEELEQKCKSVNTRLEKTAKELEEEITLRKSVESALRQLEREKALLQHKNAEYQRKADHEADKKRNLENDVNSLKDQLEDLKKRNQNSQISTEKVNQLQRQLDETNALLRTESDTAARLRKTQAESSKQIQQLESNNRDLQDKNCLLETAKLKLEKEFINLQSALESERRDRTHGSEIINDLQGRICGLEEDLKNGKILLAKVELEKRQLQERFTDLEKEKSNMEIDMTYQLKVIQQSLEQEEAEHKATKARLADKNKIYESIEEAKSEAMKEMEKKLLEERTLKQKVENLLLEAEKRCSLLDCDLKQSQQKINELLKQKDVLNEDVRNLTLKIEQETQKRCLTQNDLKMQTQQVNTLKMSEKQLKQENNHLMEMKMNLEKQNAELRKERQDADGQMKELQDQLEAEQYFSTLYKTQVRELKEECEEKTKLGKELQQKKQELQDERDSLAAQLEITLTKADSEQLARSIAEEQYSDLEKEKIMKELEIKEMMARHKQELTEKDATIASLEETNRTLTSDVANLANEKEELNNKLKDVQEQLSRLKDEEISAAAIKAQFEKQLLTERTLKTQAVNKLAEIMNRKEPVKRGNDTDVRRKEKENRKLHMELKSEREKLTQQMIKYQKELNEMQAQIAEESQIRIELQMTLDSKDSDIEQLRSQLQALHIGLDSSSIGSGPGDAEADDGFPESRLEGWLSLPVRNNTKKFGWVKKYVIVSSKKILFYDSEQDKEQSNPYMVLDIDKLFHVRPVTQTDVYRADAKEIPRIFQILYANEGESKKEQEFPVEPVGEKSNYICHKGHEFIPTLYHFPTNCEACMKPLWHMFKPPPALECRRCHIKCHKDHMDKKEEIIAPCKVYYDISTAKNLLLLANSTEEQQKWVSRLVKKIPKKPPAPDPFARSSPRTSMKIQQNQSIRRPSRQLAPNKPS
T17 sequence (P28482 whole entry): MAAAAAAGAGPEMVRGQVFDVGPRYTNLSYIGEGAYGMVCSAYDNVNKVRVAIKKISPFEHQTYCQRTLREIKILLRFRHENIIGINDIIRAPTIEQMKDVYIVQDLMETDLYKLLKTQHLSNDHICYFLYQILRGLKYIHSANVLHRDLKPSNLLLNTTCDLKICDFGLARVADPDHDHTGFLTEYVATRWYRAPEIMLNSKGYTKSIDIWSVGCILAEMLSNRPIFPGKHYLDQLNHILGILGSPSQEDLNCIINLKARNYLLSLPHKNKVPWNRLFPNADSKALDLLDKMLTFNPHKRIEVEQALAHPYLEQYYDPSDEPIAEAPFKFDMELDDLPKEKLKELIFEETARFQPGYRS

CN(C)C(=O)c1cc2cnc(Nc3ccc(-c4csc5c(=O)cc(N6CCOCC6)oc45)cc3)nc2n1C1CCCC1 [SRX3177]
remaining binding at 1 µM (kinome (kinase panel) [1]): 94% | remaining binding at 1 µM (kinome (kinase panel) [2]): 100% | remaining binding at 1 µM (kinome (kinase panel) [3]): 46% | remaining binding at 1 µM (kinome (kinase panel) [4]): 85% | remaining binding at 1 µM (kinome (kinase panel) [5]): 5.4% | remaining binding at 1 µM (kinome (kinase panel) [6]): 21% | remaining binding at 1 µM (kinome (kinase panel) [7]): 18% | remaining binding at 1 µM (kinome (kinase panel) [8]): 82% | remaining binding at 1 µM (kinome (kinase panel) [9]): 77% | remaining binding at 1 µM (kinome (kinase panel) [10]): 100% | remaining binding at 1 µM (kinome (kinase panel) [11]): 86% | remaining binding at 1 µM (kinome (kinase panel) [12]): 61% | remaining binding at 1 µM (kinome (kinase panel) [13]): 100% | remaining binding at 1 µM (kinome (kinase panel) [14]): 74% | remaining binding at 1 µM (kinome (kinase panel) [15]): 81% | remaining binding at 1 µM (kinome (kinase panel) [16]): 1.6% | remaining binding at 1 µM (kinome (kinase panel) [17]): 100% | remaining binding at 1 µM (kinome (kinase panel) [18]): 63% | remaining binding at 1 µM (kinome (kinase panel) [19]): 38% | remaining binding at 1 µM (kinome (kinase panel) [20]): 79% | remaining binding at 1 µM (kinome (kinase panel) [21]): 38% | remaining binding at 1 µM (kinome (kinase panel) [22]): 45% | remaining binding at 1 µM (kinome (kinase panel) [23]): 81% | remaining binding at 1 µM (kinome (kinase panel) [24]): 44% | remaining binding at 1 µM (kinome (kinase panel) [25]): 89% | remaining binding at 1 µM (kinome (kinase panel) [26]): 70% | remaining binding at 1 µM (kinome (kinase panel) [27]): 97% | remaining binding at 1 µM (kinome (kinase panel) [28]): 100% | remaining binding at 1 µM (kinome (kinase panel) [29]): 100% | remaining binding at 1 µM (kinome (kinase panel) [30]): 100% | remaining binding at 1 µM (kinome (kinase panel) [31]): 60% | remaining binding at 1 µM (kinome (kinase panel) [32]): 42% | remaining binding at 1 µM (kinome (kinase panel) [33]): 73%
